Measurements reported in ChEMBL document CHEMBL4385607, “Structure- and Ligand-Based Discovery of Chromane Arylsulfonamide Nav1.7 Inhibitors for the Treatment of Chronic Pain” (J Med Chem, 2019).

Key:
[1] = Clearance in human hepatocytes at 1 uM measured up to 3 hrs by LC-MS/MS analysis; type: ADME, cell-based, Hepatocyte
[2] = Clearance in Sprague-Dawley rat hepatocytes at 1 uM measured up to 3 hrs by LC-MS/MS analysis; type: ADME, cell-based, Hepatocyte
[3] = Lipophilicity, log D of compound at pH 7.4; type: physicochemical; settings: buffer
[4] = Plasma clearance in Sprague-Dawley rat at 1 mg/kg, iv measured up to 8 hrs by LC-MS/MS analysis; type: ADME, organism-based
[5] = Volume of distribution at steady state in Sprague-Dawley rat at 1 mg/kg, iv measured upto 8 hrs by LC-MS/MS analysis; type: ADME, organism-based; settings: in vivo, read-out: Vdss
[6] = Ratio of drug uptake in Sprague-Dawley rat liver to plasma at 5 mg/kg, po measured up to 8 hrs by LC-MS/MS analysis; type: ADME, organism-based
[7] = Dissociation constant, acidic pKa of compound by spectrophotometric method; type: physicochemical
[8] = Blood clearance in FVB mouse at 1 mg/kg, iv measured upto 6 hrs by LC-MS/MS analysis; type: ADME, organism-based; settings: whole blood
[9] = Volume of distribution at steady state in FVB mouse at 1 mg/kg, iv measured upto 6 hrs by LC-MS/MS analysis; type: ADME, organism-based; settings: in vivo, read-out: Vdss
[10] = Plasma clearance in cynomolgus monkey at 0.5 mg/kg, iv administered as single dose measured upto 24 hrs by LC-MS/MS analysis; type: ADME, organism-based, Macaca fascicularis
[11] = Half life in Beagle dog at 0.5 mg/kg, iv administered as single dose measured upto 24 hrs by LC-MS/MS analysis; type: ADME, organism-based, Canis lupus familiaris; settings: in vivo
[12] = Clearance in Beagle dog at 0.5 mg/kg, iv administered as single dose measured upto 24 hrs by LC-MS/MS analysis relative to hepatic blood flow; type: ADME, organism-based, Canis lupus familiaris; settings: in vivo
[13] = Oral bioavailability in Beagle dog at 0.5 mg/kg administered as single dose measured upto 24 hrs by LC-MS/MS analysis; type: ADME, organism-based, Canis lupus familiaris; settings: in vivo
[14] = Oral bioavailability in cynomolgus monkey at 0.5 mg/kg administered as single dose measured upto 24 hrs by LC-MS/MS analysis; type: ADME, organism-based, Macaca fascicularis; settings: in vivo
[15] = Half life in Sprague-Dawley rat at 1 mg/kg, iv measured upto 8 hrs by LC-MS/MS analysis; type: ADME, organism-based; settings: in vivo
[16] = Half life in cynomolgus monkey at 0.5 mg/kg, iv administered as single dose measured upto 24 hrs by LC-MS/MS analysis; type: ADME, organism-based, Macaca fascicularis; settings: in vivo
[17] = Oral bioavailability in Sprague-Dawley rat at 5 mg/kg measured upto 8 hrs by LC-MS/MS analysis; type: ADME, organism-based; settings: in vivo
[18] = Plasma clearance in Beagle dog at 0.5 mg/kg, iv administered as single dose measured upto 24 hrs by LC-MS/MS analysis; type: ADME, organism-based, Canis lupus familiaris
[19] = Clearance in Sprague-Dawley rat at 1 mg/kg, iv measured upto 8 hrs by LC-MS/MS analysis relative to hepatic blood flow; type: ADME, organism-based; settings: in vivo
[20] = Volume of distribution at steady state in cynomolgus monkey at 0.5 mg/kg, iv administered as single dose measured upto 24 hrs by LC-MS/MS analysis; type: ADME, organism-based, Macaca fascicularis; settings: in vivo, read-out: Vdss
[21] = Clearance in cynomolgus monkey at 0.5 mg/kg, iv administered as single dose measured upto 24 hrs by LC-MS/MS analysis relative to hepatic blood flow; type: ADME, organism-based, Macaca fascicularis; settings: in vivo
[22] = Volume of distribution at steady state in Beagle dog at 0.5 mg/kg, iv administered as single dose measured upto 24 hrs by LC-MS/MS analysis; type: ADME, organism-based, Canis lupus familiaris; settings: in vivo, read-out: Vdss
[23] = Drug level in plasma of FVB transgenic mouse model of inherited erythromelalgia xenografted with human HEK293 cells harboring I848T mutation at 50 mg/kg, po measured after 70 mins by LC-MS/MS analysis; type: ADME, organism-based
[24] = Drug level in plasma of FVB transgenic mouse model of inherited erythromelalgia xenografted with human HEK293 cells harboring I848T mutation at 15 mg/kg, po measured after 70 mins by LC-MS/MS analysis; type: ADME, organism-based
[25] = Dissociation constant, basic pKa of compound; type: physicochemical
[26] = Drug excretion in Sprague-Dawley rat bile at 1 mg/kg, iv or 5 mg/kg, po measured up to 8 hrs by LC-MS/MS analysis; type: ADME, organism-based; settings: in vivo
[27] = Drug metabolism in human hepatocytes assessed as oxidation of arene ring at 1 uM measured up to 3 hrs by LC-MS/MS analysis; type: ADME, cell-based, Hepatocyte

SMILES	CLhep predicted at 1 µM [1]	CLhep predicted at 1 µM [2]	logD [3]	clearance [4]	other results
O=S(=O)(Nc1ccncn1)c1cc2c(cc1F)[C@@H](N1CC[C@H](C(F)(F)F)C[C@@H]1c1cnccn1)CCO2	9 mL/min/kg	25 mL/min/kg	0.5	42 mL/min/kg	
O=S(=O)(Nc1ncns1)c1cc(F)c(CN2CCCC[C@H]2c2ccccc2)cc1F			1.9		
O=S(=O)(Nc1ccncn1)c1cc2c(cc1F)[C@@H](N1CC[C@H](C(F)(F)F)C[C@@H]1c1cccnc1)CCO2	15 mL/min/kg	26 mL/min/kg	1.3	101 mL/min/kg	
O=S(=O)(Nc1ccncn1)c1cc2c(cc1F)[C@@H](N1CC[C@H](C(F)(F)F)C[C@@H]1c1ccc(F)cc1)CCO2	7.7 mL/min/kg	14 mL/min/kg	3.2	0.78 to 0.8 mL/min/kg	Vd [5]: 0.7 L/kg; Kp at 8 h [6]: 4; pKa [7]: 5.81; clearance [8]: 8.3 mL/min/kg; Vd [9]: 0.9 L/kg
O=S(=O)(Nc1ncns1)c1cc(F)c(CN2CC[C@@H](C(F)(F)F)C[C@H]2c2ccccc2)cc1F			2.7		
O=S(=O)(Nc1ccncn1)c1cc2c(cc1F)[C@@H](N1CC[C@H](C(F)(F)F)C[C@@H]1c1cn[nH]c1)CCO2	12 mL/min/kg	18 mL/min/kg	1.1	161 mL/min/kg	
O=S(=O)(Nc1ncns1)c1cc(F)c(CN2CC[C@H](C(F)(F)F)C[C@@H]2c2ccccc2)cc1F			2.7		concentration at 70 min [23]: 58 µM; concentration at 70 min [24]: 33 µM; pKa [25]: 5.5
O=S(=O)(Nc1ncns1)c1ccc2c(c1)OCC[C@@H]2N1CC[C@H](C(F)(F)F)C[C@@H]1c1ccc(F)cc1	11 mL/min/kg	17 mL/min/kg	3.2	62 mL/min/kg	Drug excretion [26]: Active; Vd [5]: 23 L/kg; Drug metabolism [27]: Metabolite_Notdetected; Kp at 8 h [6]: 202; pKa [7]: 3.26; clearance [8]: 46 mL/min/kg; Vd [9]: 4.8 L/kg
O=S(=O)(Nc1cccnn1)c1cc2c(cc1F)[C@@H](N1CC[C@H](C(F)(F)F)C[C@@H]1c1ccc(F)cc1)CCO2	< 6.2 mL/min/kg	< 10 mL/min/kg	4.3	0.71 mL/min/kg	pKa [7]: 6.59
O=S(=O)(Nc1ncns1)c1cc(F)c(CN2CCCC[C@@H]2c2ccccc2)cc1F			1.9		
O=S(=O)(Nc1ncns1)c1ccc2c(c1)OCC[C@@H]2N1CC[C@H](C(F)(F)F)C[C@@H]1c1ccccc1	11 mL/min/kg	32 mL/min/kg	3.5		
O=S(=O)(Nc1ccon1)c1cc2c(cc1F)[C@@H](N1CC[C@H](C(F)(F)F)C[C@@H]1c1ccc(F)cc1)CCO2	< 6.2 mL/min/kg	13 mL/min/kg	2.8	2.1 mL/min/kg	pKa [7]: 4.49
O=S(=O)(Nc1ccc(F)cn1)c1cc2c(cc1F)[C@@H](N1CC[C@H](C(F)(F)F)C[C@@H]1c1ccc(F)cc1)CCO2	< 6.2 mL/min/kg	< 10 mL/min/kg	5	4.9 mL/min/kg	pKa [7]: 8.22

More lines, main results first:

CLhep predicted at 1 µM [1]	CLhep predicted at 1 µM [2]	logD [3]	clearance [4]	SMILES	other results
12 mL/min/kg	12 mL/min/kg	0.9	62 mL/min/kg	O=S(=O)(Nc1ccncn1)c1cc2c(cc1F)[C@@H](N1CC[C@H](C(F)(F)F)C[C@@H]1c1cnco1)CCO2	
9.1 mL/min/kg	15 mL/min/kg	1.3	93 mL/min/kg	O=S(=O)(Nc1ccncn1)c1cc2c(cc1F)[C@@H](N1CC[C@H](C(F)(F)F)C[C@@H]1c1cc[nH]n1)CCO2	
< 6.2 mL/min/kg	< 10 mL/min/kg	0.2		O=S(=O)(Nc1ccncn1)c1cc2c(cc1F)[C@@H](N1CC[C@H](C(F)(F)F)C[C@@H]1c1ccnnc1)CCO2	
8.2 mL/min/kg	41 mL/min/kg	1.3	46 mL/min/kg	Cn1ccc([C@H]2C[C@@H](C(F)(F)F)CCN2[C@H]2CCOc3cc(S(=O)(=O)Nc4ccncn4)c(F)cc32)n1	
13 mL/min/kg	13 mL/min/kg	1.2	82 mL/min/kg	O=S(=O)(Nc1ccncn1)c1cc2c(cc1F)[C@@H](N1CC[C@H](C(F)(F)F)C[C@@H]1c1ccncc1)CCO2	
< 6.2 mL/min/kg	17 mL/min/kg	1.4	14 to 15 mL/min/kg	O=S(=O)(Nc1ccncn1)c1cc2c(cc1F)[C@@H](N1CC[C@H](C(F)(F)F)C[C@@H]1c1ccccn1)CCO2	clearance [10]: 19 mL/min/kg; half-life [11]: 4.3 h; clearance [12]: 8 to 44%; Vd [5]: 1.2 L/kg; bioavailability [13]: 32%; bioavailability [14]: 18%; half-life [15]: 1.7 h; half-life [16]: 2.1 h; bioavailability [17]: 73%; clearance [18]: 2.4 mL/min/kg; clearance [19]: 8 to 44%; Vd [20]: 0.66 L/kg; clearance [21]: 8 to 44%; Vd [22]: 0.74 L/kg
14 mL/min/kg	14 mL/min/kg	0.9	42 mL/min/kg	Cn1nccc1[C@H]1C[C@@H](C(F)(F)F)CCN1[C@H]1CCOc2cc(S(=O)(=O)Nc3ccncn3)c(F)cc21	
7.8 mL/min/kg	16 mL/min/kg	0.6		O=S(=O)(Nc1ccncn1)c1cc2c(cc1F)[C@@H](N1CC[C@H](C(F)(F)F)C[C@@H]1c1ccncn1)CCO2	
